Values quoted from earlier work, collected in patent publication US6652882B1, “Controlled release formulation containing bupropion” (Intellipharmaceutics Corp, priority 1997, dated 2003).

Columns and labels:
[1] = oral administration; mammals such as rats and dogs
[2] = during storage

CC(NC(C)(C)C)C(=O)c1cccc(Cl)c1 (racemic) [Bupropion, (±)-2-(tert-butylamino)3′-chloropropiophenone]
absolute bioavailability [1]: 5% to 20 | stability on storage [2]: subject to hydrolytic decomposition during storage
